Data: patent publication US10487143B2, “Vaccines against HER3 antigens and methods of using the same” (Duke University, priority 2016, dated 2019)

Assays:
[1] = test system: murine CD8+ T cells stimulated with peptide-pulsed T2 cells; assay: IFN-γ ELISPOT after peptide vaccination of HLA-A*0201-transgenic mice; type: in vivo; details: mice immunized with mixture of 100 μg of each peptide in PBS:Montanide ISA 51, 3 weekly vaccinations; CD8+ T cells stimulated with the same epitope on T2 cells; FIG. 1
Source text: To further validate the identified HER-3-derived peptide epitopes (SEQ ID NO: 1 and SEQ ID NO: 3), we vaccinated HLA-A*0201-transgenic mice with these peptides. Female CB6F1-Tg(HLA-A*0201/H2-K^b) A*0201 mice were purchased from Charles River Laboratories (Raleigh, N.C.). These animals carry a transgene consisting of fragments of the human HLA-A*0201 gene and mouse H2-K^b gene which encodes a chimeric class I molecule consisting of the human HLA-A2.1 leader, α1 and α2 domains ligated to the murine α3, transmembrane and cytoplasmic H2-K^b domain Mice were maintained in a specific pathogen-free environment. All mice were used at 8 to 12 weeks of age. Animals were housed in a specific pathogen-free environment at the animal facility of the DUKE University Medical Center. All mice used in this study were cared for in accordance with the Guide for Humane care and use of Laboratory Animals published by the National Institutes of Health. All the animal experimental protocols were approved by the Duke University Medical Center Institutional Animal Care and Use Committee.
Mice were immunized with a mixture of 100 μg of each peptide emulsified in PBS:Montanide ISA 51 (1:1) (SEPPIC, France). […]
ELISPOT assays were performed without re-stimulation of cells. […] Spots of the dried plate were counted using an ImmunoScan ELISPOT reader (C.T.L., Cellular Technology Ltd.).

[2] = test system: HLA-A*0201-positive- and HER3-positive MCF-7 cells; assay: Human CTL (51Cr release) assay on MCF-7 target cells; type: cell-based; details: effector to target ratio 25 to 1; for killing of MCF-7 cells by peptide-induced CTL: CTL induced with peptide-loaded (10 μM) human DCs, unloaded MCF-7 targets, FIGS. 2A-2B
Procedure: (§1) Immature human DCs (Dendritic cells) were loaded for 2 hours at 10 μM with peptides, washed and then co-cultured with untouched autologous T cells (isolated via magnetic bead-based separation) at a DC to T-cell ratio of 1:20 in complete RPMI media supplemented with 12.5 μg/mL pIC, (polyinosinic-polycytidylic acid, Sigma) and 1.0 μg/mL recombinant CD40L plus 1.0 μg/mL Enhancer (Alexis Biochemicals). 20 U/ml of recombinant human Interleukin-2 (IL-2) were added after 3 days and every other day thereafter. Cells were re-stimulated twice after 7 days (DC to T cell ratio of 1:10) and analyzed for cytolytic activity 10 days after the last re-stimulation.
(§2) 2×10^6 target cells were harvested, washed, counted, and labeled with 100 μCi of Na2^51CrO4 (Amersham) in 0.5 ml complete RPMI at 37° C. for 1.5 h. Exogenous loading of cells with 10 μM synthetic peptide was performed simultaneously with labeling reactions. CTLs (untouched CD8^+ T cells isolated via magnetic-bead-based techniques (Miltenyi Biotec)) were washed, counted, and diluted to the desired density in complete RPMI 1640 and plated in duplicate wells in a round-bottomed, 96-well plate. Target cells were washed three times, resuspended in complete RPMI and incubated at 37° C. and 5% CO2. After 1 h, cells were washed one more time, diluted to 10^4 cells/ml and co-incubated with CTLs at indicated effector to target ratio of 25 to 1. The plates were spun briefly at 800×g and incubated for 4-5 h at 37° C. Supernatants were harvested and counted in a gamma counter. Duplicate wells were averaged, and the percentage of specific lysis was calculated as: […]

[3] = test system: HLA-A*0201-positive, but HER3-negative LNCaP cells; assay: Human CTL (51Cr release) assay on LNCaP target cells; type: cell-based; details: effector to target ratio 25 to 1, FIG. 2B
Procedure: as §1
as §2, with “After 1 h, cells were washed one more time, diluted to 10^4 cells/ml and co-incubated with CTLs at indicated effector to target ratio of 25 to 1. The plates were spun briefly at 800×g and incubated for 4-5 h at 37° C.” left out

LAEVPDLLE (Synthetic HER3 Antigen 1) [HER3917-925]
induction of epitope-specific CD8+ T cells producing IFN-γ (ELISPOT) [1]: failed to induce CD8^+ T cells that produced IFN-γ | killing of MCF-7 cells by peptide-induced CTL [2]: failed to induce HERS-specific CTLs

VMVKCWMIDENI (Synthetic HER3 Antigen 3) [HER3943-954]
induction of epitope-specific CD8+ T cells producing IFN-γ (ELISPOT) [1]: induced epitope-specific CD8^+ T cells | killing of MCF-7 cells by peptide-induced CTL [2]: killed MCF-7 cells efficiently | killing of epitope-loaded MCF-7 cells by peptide-induced CTL ([2]; target cells loaded with 10 μM HER3943-954, FIG. 2B): cytolytic activity could further be enhanced | killing of epitope-loaded LNCaP cells by peptide-specific CTL ([3]; LNCaP targets loaded with 10 μM HER3943-954): Killing | killing of LNCaP cells by peptide-specific CTL ([3]; unloaded HER3-negative LNCaP targets): did not kill
